From patent publication US20090144853A1, “Control of Gene Expression in Plants” (UNIVERSITY OF DURHAM, priority 2005, published 2009)

How the values were obtained:
[1] = system: LRI-1 promoter; assay: GUS histochemical staining of LRI-1 promoter trap seedlings grown with hormones or hormone signalling inhibitors; assay type: in vivo, Arabidopsis thaliana
Method: (§1) The expression of the GUS promoter trap was analysed over a developmental time course in uninfected Arabidopsis seedlings that had been grown aseptically on a synthetic growth medium. Prior to analysis, seeds of the transgenic line were surface sterilised by treatment with 70% (v/v) ethanol for 3 minutes and 10% (v/v) commercial bleach for 20 minutes. The seeds were then washed with water and grown on half-strength Murashige and Skoog medium (½MS), supplemented with 10 g/l sucrose. The seedlings were grown in the presence of continuous light at 25° C. Tissue localisation of the GUS enzyme activity was determined at intervals after germination by staining for up to 12 hours at 37° C. in 1 mM 5-bromo-4-chloro-3-indoyl-β-D-glucuronic acid (X-gluc), according to the method of Jefferson et al (1987, EMBO J. 6, 3901-3907), wherein the method was modified by the use of buffer comprising 100 mM sodium phosphate (pH 7.0), 10 mM EDTA, 0.1% (v/v) Triton X-100 and 1 mM potassium ferricyanide to inhibit diffusion of the reaction intermediate. This solution was known as GUS buffer. Excess chlorophyll was removed by soaking the stained tissues in 70% (v/v) ethanol.
(§2) In order to investigate the regulation of the LRI-1 promoter activity, seeds that were homozygous for the LRI-1 gene fusion were germinated aseptically on ½MS10 medium in the presence or absence of hormones. At 9 dpg, the seedlings were subsequently transferred to ½MS10 medium containing either hormones or inhibitors of hormone signalling. Hormone treatments used for the purposes of this invention included, but were not limited to: 0.25, 2.5 or 10 μM 1-naphthaleneacetic acid (NAA, a synthetic auxin); 0.25, 2.5 or 10 μM kinetin (a synthetic cytokinin); 10 or 100 μM silver nitrate (an inhibitor of ethylene signalling); 10 or 100 μM 1-aminocyclopropane-1-carboxylic acid (ACC, a precursor of ethylene); 10 or 100 μM naphthylphthalamic acid (NPA) or 10 μM triiodobenozoic acid (TIBA). NPA and TIBA are inhibitors of polar auxin transport. After growth on medium in the presence or absence of hormones, the seedlings were transferred to a solution of GUS buffer and analysed for GUS activity (indicated by the presence of a blue precipitate).

[2] = system: AtPRB2 promoter; assay: GUS activity of 2.47 kb AtPRB2 promoter fragment::GUS transgenic seedlings treated with exogenous auxin; assay type: in vivo, Arabidopsis thaliana; settings: 9 dpg on ½MS10, then 2.5 μM for a further 1, 3 or 5 days; except at the root tips
Source text: To confirm that the 5′ flanking sequence upstream of the left T-DNA was responsible for the observed GUS activity in line LRI-1, the sequence was cloned and fused to each of the gusA and the GFP reporter genes respectively. The technique of PCR was used to amplify a 1.47 kb genomic fragment immediately upstream of the left T-DNA border. This 1.47 kb fragment was cloned upstream of the respective reporter genes and subsequently introduced into Arabidopsis thaliana plants by the dipping method of Agrobacterium tumefaciens-mediated transformation (Clough and Bent 1998 Plant J. 16, 735-743). In order to determine whether the promoter activity of the cloned sequence pLRI-1 was similar to the promoter region upstream of gene AtPRB2, a 2.47 kb fragment immediately upstream of the gene was cloned. In addition, shorter fragments which were 1 kb, 0.5 kb and 0.2 kb upstream of AtPRB2 were cloned and fused to the gusA reporter gene in the binary vector pΔGUSCIRCE (Casson et al, 2002 Plant Cell 14, 1705-1721), before introduction into plants by Agrobacterium-mediated transformation.
Using a similar approach, the activity of the 2.47 kb AtPRB2 gene fragment was determined in transgenic Arabidopsis lines. […]

[3] = system: Arabidopsis thaliana seedlings; assay: Root development of LRI-1 seedlings grown with hormones or hormone signalling inhibitors; assay type: in vivo
Method: as §1, §2

[4] = 9 days without compound, then 10 μM for a further 2 days
[5] = grown on 2.5 μM or 10 μM for up to 9 days
[6] = transferred to compound after growth on hormone-free medium, higher concentrations

SMILES: NC1(C(=O)O)CC1 [ACC, 1-aminocyclopropane-1-carboxylic acid]
- level of GUS activity ([1]; germinated and grown in presence of 10 μM for up to 9 dpg): reduction in the level of GUS activity
- GUS activity ([1]; grown in presence of 100 μM, stronger expression at the base of lateral roots): induction of GUS activity in the hypocotyl

SMILES: O=C(O)Cc1cccc2ccccc12 [NAA, 1-naphthaleneacetic acid]
- AtPRB2::GUS activity [2]: strong induction of AtPRB2::GUS activity throughout the root
- adventitious root development ([3]; after transfer at 9 dpg, 2.5 μM NAA): developed adventitious roots on the hypocotyl
- adventitious root development ([3]; grown for 9 dpg in presence of auxin, roots GUS-positive): adventitious roots developed from the shortened hypocotyl
- root elongation ([3]; seedlings germinated on ½MS10 in presence of NAA, most prominent at 10 μM): dramatic reduction in root elongation
- GUS activity in root ([1]; 9 dpg on ½MS10, then transfer to 0.25, 2.5 or 10 μM NAA for 1, 3 or 5 days, except at the root tip): strong GUS activity throughout the root
- GUS activity in aerial parts ([1]; after transfer at 9 dpg, two lower concentrations of NAA tested): No GUS activity was detected
- GUS activity ([1]; seedlings germinated on ½MS10 in presence of NAA (0.25, 2.5 or 10 μM), most prominent at 10 μM): strong throughout the root of the seedling
- LRI-1::GUS expression ([1]; seedlings treated with 2.5 μM exogenous auxin): induction of LRI-1::GUS expression throughout the Arabidopsis root

SMILES: O=C(O)c1cc(I)cc(I)c1I [TIBA, triiodobenozoic acid]
- new lateral root formation [3, 4]: inhibition of new lateral root formation
- lateral root development ([3]; germinated and grown 5 dpg in presence of 10 μM): No lateral root development was observed
- existing GUS activity at previously formed lateral roots [1, 4]: remained unaffected
- GUS activity ([1]; grown 5 dpg in presence of 10 μM, some seedlings, at sites where lateral roots would normally emerge): localised but low level GUS activity

SMILES: c1coc(CNc2ncnc3[nH]cnc23)c1 [kinetin]
- lateral root formation [3, 5]: no lateral root formation was observed
- lateral root formation [3, 6]: reduction in lateral root formation
- GUS activity [1, 5]: detected as normal
- GUS activity [1, 6]: detectable as normal

SMILES: O=[N+]([O-])[O-].[Ag+] [silver nitrate]
- GUS activity associated with the LRI-1 promoter ([1]; germination and growth for 3, 5 or 9 days in presence of 10 μM): reduction in GUS activity
